# US8362022B2, “Selective subtype alpha 2 adrenergic agents and methods for use thereof” (Allergan, Inc., priority 2008, dated 2013)
# Like-named read-outs stand apart in the source and are kept apart here.
# Tests used:
# Assay type in all cases: cell-based
# alpha 2B receptor = target: T1, alpha 2B receptor (Homo sapiens, UniProt P18089); assay: RSAT assay (Receptor Selection and Amplification Technology), Alpha 2B; details: for Intrinsic Activity efficacy Alpha 2B: value in parentheses, ratio of maximal effect to that of brimonidine
# T1 construct: expressed in transfected cells; host or cells: NIH-3T3
# T1 sequence (P18089 1-450): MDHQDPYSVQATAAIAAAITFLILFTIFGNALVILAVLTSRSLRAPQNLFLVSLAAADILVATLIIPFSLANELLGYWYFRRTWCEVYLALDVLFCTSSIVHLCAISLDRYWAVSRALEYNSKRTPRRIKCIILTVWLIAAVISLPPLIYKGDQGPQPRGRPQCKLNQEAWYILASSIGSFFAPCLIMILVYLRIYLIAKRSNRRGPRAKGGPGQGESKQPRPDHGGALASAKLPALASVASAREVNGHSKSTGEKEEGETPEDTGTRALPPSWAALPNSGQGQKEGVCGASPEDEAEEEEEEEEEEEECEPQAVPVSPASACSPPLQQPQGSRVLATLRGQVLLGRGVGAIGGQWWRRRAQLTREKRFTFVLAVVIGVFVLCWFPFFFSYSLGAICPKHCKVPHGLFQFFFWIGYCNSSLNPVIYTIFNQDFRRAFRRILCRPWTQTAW
# Method: (§1) The RSAT assay measures a receptor-mediated loss of contact inhibition that results in selective proliferation of receptor-containing cells in a mixed population of confluent cells. The increase in cell number is assessed with an appropriate transfected marker gene such as β-galactosidase, the activity of which can be easily measured in a 96-well format. Receptors that activate the G protein, Gq, elicit this response. Alpha 2 receptors, which normally couple to Gi, activate the RSAT response when coexpressed with a hybrid Gq protein that has a Gi receptor recognition domain, called Gq/i5.
# (§2) NIH-3T3 cells are plated at a density of 2×10^6 cells in 15 cm dishes and maintained in Dulbecco's modified Eagle's medium supplemented with 10% calf serum. One day later, cells are cotransfected by calcium phosphate precipitation with mammalian expression plasmids encoding p-SV-β-galactosidase (5-10 μg), receptor (1-2 μg) and G protein (1-2 μg). 40 μg salmon sperm DNA may also be included in the transfection mixture. […] Cells are thawed and 100 μl added to 100 μL aliquots of various concentrations of drugs in triplicate in 96-well dishes. Incubations continue 72-96 hr at 37° C. After washing with phosphate-buffered saline, β-galactosidase enzyme activity is determined by adding 200 μL of the chromogenic substrate (consisting of 3.5 mM o-nitrophenyl-β-D-galactopyranoside and 0.5% nonidet P-40 in phosphate buffered saline), incubating overnight at 30° C. and measuring optical density at 420 nm. The absorbance is a measure of enzyme activity, which depends on cell number and reflects a receptor-mediated cell proliferation. The efficacy or intrinsic activity is calculated as a ratio of the maximal effect of the drug to the maximal effect of a standard full agonist for each receptor subtype. Brimonidine, the chemical structure of which is shown below, is used as the standard agonist for the alpha 2B and alpha 2C receptors. […] NA stands for “not active” at concentrations less than 3-10 micromolar.
# alpha 2C receptor = target: T2, alpha 2C receptor (Homo sapiens, UniProt P18825); assay: RSAT assay (Receptor Selection and Amplification Technology), Alpha 2C; details: for Intrinsic Activity efficacy Alpha 2C: value in parentheses, ratio of maximal effect to that of brimonidine
# T2 construct: expressed in transfected cells; host or cells: NIH-3T3
# T2 sequence (P18825 1-462): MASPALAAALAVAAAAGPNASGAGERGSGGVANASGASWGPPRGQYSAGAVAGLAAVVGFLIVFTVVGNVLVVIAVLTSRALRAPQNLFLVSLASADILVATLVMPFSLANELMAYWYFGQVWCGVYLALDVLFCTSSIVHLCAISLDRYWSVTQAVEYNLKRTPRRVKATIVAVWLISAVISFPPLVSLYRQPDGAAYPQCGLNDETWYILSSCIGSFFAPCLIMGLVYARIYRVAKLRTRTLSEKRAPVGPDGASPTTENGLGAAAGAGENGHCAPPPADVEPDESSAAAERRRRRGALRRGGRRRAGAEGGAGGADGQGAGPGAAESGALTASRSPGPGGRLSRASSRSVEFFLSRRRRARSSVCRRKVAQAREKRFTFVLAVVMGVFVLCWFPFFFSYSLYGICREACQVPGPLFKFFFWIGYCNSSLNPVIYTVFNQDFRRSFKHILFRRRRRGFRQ
# Method: as §1, §2
# Alpha 1A = target: T3, Alpha 1A (Homo sapiens, UniProt P35348); assay: RSAT assay (Receptor Selection and Amplification Technology), Alpha 1A; details: value in parentheses, ratio of maximal effect of drug to maximal effect of standard full agonist
# T3 sequence (P35348 1-466): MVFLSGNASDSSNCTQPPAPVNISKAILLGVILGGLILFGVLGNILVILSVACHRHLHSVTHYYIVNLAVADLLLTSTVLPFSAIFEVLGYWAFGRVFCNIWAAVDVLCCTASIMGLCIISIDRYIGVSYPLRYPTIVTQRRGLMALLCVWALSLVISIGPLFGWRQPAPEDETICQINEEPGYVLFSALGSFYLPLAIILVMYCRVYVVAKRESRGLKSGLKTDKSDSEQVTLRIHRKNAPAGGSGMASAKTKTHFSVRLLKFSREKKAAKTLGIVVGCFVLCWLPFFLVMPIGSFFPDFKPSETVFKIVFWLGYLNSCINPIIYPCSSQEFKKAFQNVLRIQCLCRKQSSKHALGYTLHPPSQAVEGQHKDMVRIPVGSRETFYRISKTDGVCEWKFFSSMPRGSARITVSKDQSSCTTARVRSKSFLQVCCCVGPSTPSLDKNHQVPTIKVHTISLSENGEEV
# Method: as §1, §2
# [1] = RSAT, Table 2, read-out: Potency nM (EC50) Alpha 2B
# [2] = RSAT, transfected NIH-3T3 cells with Gq/i5, NA = not active at concentrations less than 10 micromolar, read-out: potency nM (EC50) Alpha 2C
# [3] = RSAT, transfected NIH-3T3 cells with Gq/i5, Table 1, read-out: potency nM (EC50) Alpha 2B
EC50 (alpha 2B receptor; [1]) [nM],"Intrinsic Activity efficacy Alpha 2B (alpha 2B receptor; RSAT, Table 2)",Intrinsic Activity efficacy Alpha 1A (Alpha 1A),Compound,other results
16,0.74,,c1ccc(C(Cc2cccnc2)NC2=NCCN2)cc1 (stereo not shown),
6.7,0.93,,Cc1cccc(C(Cc2ccccn2)NC2=NCCO2)c1C (stereo not shown),
1.3,1.05,,Clc1cccc(C(Cc2cccnc2Br)NC2=NCCO2)c1 (stereo not shown),
0.48,1.01,,Clc1cccc(C(Cc2cccnc2Cl)NC2=NCCO2)c1 (stereo not shown),
0.06,0.88,,Cc1cccc(C(Cc2cccnc2Cl)NC2=NCCO2)c1 (stereo not shown),
0.09,0.87,,Fc1cccc(C(Cc2cccnc2Cl)NC2=NCCO2)c1 (stereo not shown),
0.14,1.01,,Clc1ncccc1CC(NC1=NCCO1)c1cccc(Br)c1 (stereo not shown),
0.21,0.81,,Fc1ncccc1CC(NC1=NCCO1)c1cccc(Cl)c1 (stereo not shown),
4,1.12,,Cc1cncc(CC(NC2=NCCO2)c2cccc(Cl)c2)c1 (stereo not shown),
3,1.1,,Cc1cncc(CC(NC2=NCCO2)c2cccc(C)c2)c1 (stereo not shown),
56,0.65,,COc1cccc(C(Cc2cccnc2)NC2=NCCO2)c1 (stereo not shown),
5.6,0.89,,Clc1cccc(C(Cc2cccnc2)NC2=NCCO2)c1Cl (stereo not shown),
8.2,1.24,,Cc1cccc(C(Cc2cccnc2)NC2=NCCO2)c1 (stereo not shown),
1.9,1.35,,Cc1c(Br)cncc1CC(NC1=NCCO1)c1cccc(Cl)c1 (stereo not shown),
2.7,1.02,,Cc1cccc(C(Cc2cncc(Br)c2C)NC2=NCCO2)c1 (stereo not shown),
8.5,0.9,,Cc1cncc(CC(NC2=NCCO2)c2cccc(Cl)c2)c1C (stereo not shown),

EC50 (alpha 2B receptor; [1]) [nM],"Intrinsic Activity efficacy Alpha 2B (alpha 2B receptor; RSAT, Table 2)",Intrinsic Activity efficacy Alpha 1A (Alpha 1A),Compound,other results
3.9,1.11,,Cc1cccc(C(Cc2cncc(C)c2C)NC2=NCCO2)c1 (stereo not shown),
5.6,1.08,,Cc1c(Cl)cncc1CC(NC1=NCCO1)c1cccc(Cl)c1 (stereo not shown),
,,1.45,"c1ccc(C(Cc2ccncc2)/N=C2/NCCS2)cc1 (stereo not shown) [Compound 2, 1-Phenyl-2-(pyridin-4-yl)-N-(thiazolidin-2-ylidene)ethanamine]","EC50 (alpha 2C receptor; [2]): 525 nM; Intrinsic Activity efficacy Alpha 2C (alpha 2C receptor; RSAT): 0.72; EC50 (alpha 2B receptor; [3]): 10 nM; Intrinsic Activity efficacy Alpha 2B (alpha 2B receptor; RSAT, Table 1): 1.18"
,,0.63,"c1ccc(C(Cc2ccncc2)N=C2NCCN2)cc1 (stereo not shown) [Compound 3, N-(Imidazolidin-2-ylidene)-1-phenyl-2-(pyridin-4-yl)ethanamine]",
,,0.77,"Cc1cccc(C(Cc2ccncc2)/N=C2/NCCS2)c1C (stereo not shown) [Compound 4, 1-(2,3-Dimethylphenyl)-2-(pyridin-4-yl)-N-(thiazolidin-2-ylidene)ethanamine]","EC50 (alpha 2C receptor; [2]): 14 nM; Intrinsic Activity efficacy Alpha 2C (alpha 2C receptor; RSAT): 0.63; EC50 (alpha 2B receptor; [3]): 3.8 nM; Intrinsic Activity efficacy Alpha 2B (alpha 2B receptor; RSAT, Table 1): 1.1"
,,,"Cc1cccc(C(Cc2ccncc2)N=C2NCCN2)c1C (stereo not shown) [Compound 5, 1-(2,3-Dimethylphenyl)-N-(imidazolidin-2-ylidene)-2-(pyridin-4-yl)ethanamine]","EC50 (alpha 2C receptor): 8.4 nM; Intrinsic Activity efficacy Alpha 2C (alpha 2C receptor; RSAT): 0.49; EC50 (alpha 2B receptor): 3.1 nM; Intrinsic Activity efficacy Alpha 2B (alpha 2B receptor; RSAT, Table 1): 1.15"
,,1.4,"Clc1cccc(C(Cc2ccncc2)/N=C2/NCCO2)c1 (stereo not shown) [Compound 8, 1-(3-Chlorophenyl)-N-(oxazolidin-2-ylidene)-2-(pyridin-4-yl)ethanamine]",
,,1.0,"COc1ccccc1C(Cc1ccncc1)N=C1NCCN1 (stereo not shown) [Compound 10, N-(Imidazolidin-2-ylidene)-1-(2-methoxyphenyl)-2-(pyridin-4-yl)ethanamine]",
,,1.19,"c1ccc(C(Cc2cnccn2)/N=C2/NCCO2)cc1 (stereo not shown) [Compound 14, N-(Oxazolidin-2-ylidene)-1-phenyl-2-(pyrazin-2-yl)ethanamine]","EC50 (alpha 2B receptor; [3]): 132 nM; Intrinsic Activity efficacy Alpha 2B (alpha 2B receptor; RSAT, Table 1): 1.0"
,,0.72,"c1ccc(C(Cc2cnccn2)N=C2NCCN2)cc1 (stereo not shown) [Compound 15, N-(Imidazolidin-2-ylidene)-1-phenyl-2-(pyrazin-2-yl)ethanamine]","EC50 (alpha 2B receptor; [3]): 198 nM; Intrinsic Activity efficacy Alpha 2B (alpha 2B receptor; RSAT, Table 1): 0.84"
,,1.27,"Fc1c(Cl)cccc1C(Cc1ccncc1)/N=C1/NCCO1 (stereo not shown) [Compound 19, 1-(3-Chloro-2-fluorophenyl)-N-(oxazolidin-2-ylidene)-2-(pyridin-4-yl)ethanamine]",
,,0.6,"Fc1c(Cl)cccc1C(Cc1ccncc1)N=C1NCCN1 (stereo not shown) [Compound 20, 1-(3-Chloro-2-fluorophenyl)-N-(imidazolidin-2-ylidene)-2-(pyridin-4-yl)ethanamine]",
,,0.7,"Cc1cccc(C(Cc2cccnc2)/N=C2/NCCS2)c1C (stereo not shown) [Compound 22, 1-(2,3-Dimethylphenyl)-2-(pyridin-3-yl)-N-(thiazolidin-2-ylidene)ethanamine]",
,,1.36,"Fc1cccc(C(Cc2ccncc2)/N=C2/NCCS2)c1 (stereo not shown) [Compound 23, 1-(3-Fluorophenyl)-2-(pyridin-4-yl)-N-(thiazolidin-2-ylidene)ethanamine]",
,,0.60,"c1ccc([C@@H](Cc2ccncc2)N=C2NCCN2)cc1 [Compound 29, R—N-(imidazolidin-2-ylidene)-1-phenyl-2-(pyridin-4-yl)ethanamine]",EC50 (alpha 2C receptor; [2]): 96 nM; Intrinsic Activity efficacy Alpha 2C (alpha 2C receptor; RSAT): 0.60
,,0.52,"Clc1cccc(C(Cc2ccncc2)N=C2NCCN2)c1Cl (stereo not shown) [Compound 32, 1-(2,3-Dichlorophenyl)-N-(imidazolidin-2-ylidene)-2-(pyridin-4-yl)ethanamine]","EC50 (alpha 2B receptor; [3]): 1 nM; Intrinsic Activity efficacy Alpha 2B (alpha 2B receptor; RSAT, Table 1): 1.3"

Compound,EC50 (alpha 2B receptor; [1]) [nM],"Intrinsic Activity efficacy Alpha 2B (alpha 2B receptor; RSAT, Table 2)",Intrinsic Activity efficacy Alpha 1A (Alpha 1A),other results
c1ccc(C(Cc2cccnc2)NC2=NCCO2)cc1 (stereo not shown),,0.76,,EC50 (alpha 2B receptor): 4.5 nM
"c1ccc(C(Cc2ccncc2)/N=C2/NCCO2)cc1 (stereo not shown) [Compound 1, N-(Oxazolidin-2-ylidene)-1-phenyl-2-(pyridin-4-yl)ethanamine]",,,1.20,"EC50 (alpha 2C receptor; [2]): 132 nM; Intrinsic Activity efficacy Alpha 2C (alpha 2C receptor; RSAT): 0.67; EC50 (alpha 2B receptor): 8 nM; Intrinsic Activity efficacy Alpha 2B (alpha 2B receptor; RSAT, Table 1): 1.09"
